# Data from patent US20210156844A1, “TMEM16A Modulation for Diagnostic or Therapeutic Use in Pulmonary Hypertension (PH)” (Bayer Aktiengesellschaft, priority 2017, published 2021).
# Tests used:
# human PASMC = assay: PASMC proliferation in vitro, [3H]-thymidine incorporation; type: cell-based; conditions: benzbromarone 30 μM; PDGF-BB 10 ng/ml; human donor PASMC
# Protocol: Human PASMC were seeded on 96-well plates. Cells were serum-starved for 12 hours, then underwent a 30 min pre-treatment with benzbromarone (30 μM) or vehicle. After the pre-treatment, serum-free SMC Medium containing PDGF-BB (10 ng/ml, Sigma) and benzbromarone was applied. The proliferation was determined by [^3H]-thymidine incorporation (BIOTREND Chemikalien GmbH, Cologne, Germany) as an index of DNA synthesis, and detected with a scintillation counter (Wallac 1450 MicroBeta TriLux Liquid Scintillation Counter & Luminometer, PerkinElmer, Waltham Mass., USA). Each independent experiment was performed in five replicates using PASMC isolated from six different donor lungs.
# In experiments using TMEM16A silencing, cells were first seeded on 6-well plates and transfected with TMEM16A siRNA or control non-silencing RNA as described above. Cells were re-seeded into 96-well plates 24 hours after transfection, starved for 12 hours, then the induction and measurement of proliferation was performed as detailed above.
# TMEM16A = biological target: T1, TMEM16A (Homo sapiens, UniProt Q5XXA6); assay: Measurement of whole-cell Ca2+-activated Cl- current (IClCa), voltage clamp, primary PASMC; type: cell-based; conditions: benzbromarone 30 μM; primary PASMC of both donors and IPAH patients
# T1 construct: endogenous in cells; host or cells: primary human PASMC from healthy donors and IPAH patients
# T1 sequence (Q5XXA6 1-986): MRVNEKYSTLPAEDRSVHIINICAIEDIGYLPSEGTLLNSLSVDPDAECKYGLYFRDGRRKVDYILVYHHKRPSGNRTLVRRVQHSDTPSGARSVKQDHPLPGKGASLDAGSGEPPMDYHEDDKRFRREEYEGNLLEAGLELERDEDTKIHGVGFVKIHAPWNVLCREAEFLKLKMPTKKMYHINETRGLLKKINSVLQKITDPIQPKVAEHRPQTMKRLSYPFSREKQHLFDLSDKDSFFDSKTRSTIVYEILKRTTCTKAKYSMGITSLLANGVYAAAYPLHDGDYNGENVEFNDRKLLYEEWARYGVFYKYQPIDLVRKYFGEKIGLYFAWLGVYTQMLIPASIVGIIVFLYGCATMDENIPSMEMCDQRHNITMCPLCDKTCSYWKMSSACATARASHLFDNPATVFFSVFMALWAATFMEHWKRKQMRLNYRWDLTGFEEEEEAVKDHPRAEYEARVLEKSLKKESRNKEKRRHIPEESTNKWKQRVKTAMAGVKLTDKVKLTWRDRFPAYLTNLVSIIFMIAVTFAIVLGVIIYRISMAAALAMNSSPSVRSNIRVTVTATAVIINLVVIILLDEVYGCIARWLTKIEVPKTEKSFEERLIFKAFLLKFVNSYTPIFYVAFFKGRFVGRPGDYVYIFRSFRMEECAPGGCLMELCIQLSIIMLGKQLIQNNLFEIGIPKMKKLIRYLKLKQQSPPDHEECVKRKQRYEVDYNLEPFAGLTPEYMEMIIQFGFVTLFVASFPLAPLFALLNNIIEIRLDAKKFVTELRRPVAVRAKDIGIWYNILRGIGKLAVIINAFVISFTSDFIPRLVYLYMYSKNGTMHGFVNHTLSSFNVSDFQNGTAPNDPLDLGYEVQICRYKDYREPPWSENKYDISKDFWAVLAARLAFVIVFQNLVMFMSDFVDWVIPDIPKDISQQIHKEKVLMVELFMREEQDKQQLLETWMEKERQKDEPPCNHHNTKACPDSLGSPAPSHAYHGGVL
# Protocol: For the measurement of whole-cell IClCa, PASMC grown in T-25 tissue culture flasks were freshly harvested with StemPro Accutase (Life Technologies), centrifuged (300 g, 5 min) and resuspended in Complete SMC Medium. PASMC were stored at 4° C. until use and were allowed to attach to glass coverslips for 15-30 min at room temperature before the measurements. Cells were perfused with a bath solution composed of (in mM) NaCl 150, glucose 10, HEPES 10, CaCl2 1, MgCl2 1, pH 7.4 (NaOH). The pipette solution contained (in mM) CsCl 110, TEA-Cl 20, EGTA 5, HEPES 10, Na2ATP 1, CaCl2 4.68, MgCl2 1, pH 7.2 (NaOH). The free Ca^2+ concentration of this solution was 2 μM as calculated with the MaxChelator software. In order to minimize K^+ current contamination of the recordings, after the formation of whole-cell configuration the bath solution was switched to a bath composed of (in mM) NaCl 140, glucose 10, HEPES 10, TEA-Cl 10, CaCl2 1, MgCl2 1, pH 7.4 (NaOH). In order to measure IClCa, the command potential was stepped from a 0 mV holding potential to −40, 0, +40, +80 and +120 mV for 1.5 s, allowing 0.5 s recovery time at the holding potential between each step. The average current measured between 750 and 1500 ms of each voltage step was plotted against the […]. […] Cells from the same batch that were cultured, harvested and recorded under normoxic conditions served as controls.
smiles,measurement,setting,value
"CCc1oc2ccccc2c1C(=O)c1cc(Br)c(O)c(Br)c1 [benzbromarone, (2-Ethyl-3-benzofuranyl)-(3,5-dibrom-4-hydroxyphenyl)ketone]",PDGF-BB induced PASMC proliferation,human PASMC,decrease
same,whole-cell IClCa,TMEM16A,significantly decreased
